Consider 14 molecules from US20140073651A1, “BENZAMIDE DERIVATIVES AS P2X7 RECEPTOR ANTAGONISTS” (Actelion Pharmaceuticals Ltd., priority 2011, published 2014).

The experiment concerns the target T1, human recombinant P2X7 receptor (Homo sapiens, UniProt Q99572).
T1 construct: expressed in transfected cells
T1 sequence (Q99572 1-595): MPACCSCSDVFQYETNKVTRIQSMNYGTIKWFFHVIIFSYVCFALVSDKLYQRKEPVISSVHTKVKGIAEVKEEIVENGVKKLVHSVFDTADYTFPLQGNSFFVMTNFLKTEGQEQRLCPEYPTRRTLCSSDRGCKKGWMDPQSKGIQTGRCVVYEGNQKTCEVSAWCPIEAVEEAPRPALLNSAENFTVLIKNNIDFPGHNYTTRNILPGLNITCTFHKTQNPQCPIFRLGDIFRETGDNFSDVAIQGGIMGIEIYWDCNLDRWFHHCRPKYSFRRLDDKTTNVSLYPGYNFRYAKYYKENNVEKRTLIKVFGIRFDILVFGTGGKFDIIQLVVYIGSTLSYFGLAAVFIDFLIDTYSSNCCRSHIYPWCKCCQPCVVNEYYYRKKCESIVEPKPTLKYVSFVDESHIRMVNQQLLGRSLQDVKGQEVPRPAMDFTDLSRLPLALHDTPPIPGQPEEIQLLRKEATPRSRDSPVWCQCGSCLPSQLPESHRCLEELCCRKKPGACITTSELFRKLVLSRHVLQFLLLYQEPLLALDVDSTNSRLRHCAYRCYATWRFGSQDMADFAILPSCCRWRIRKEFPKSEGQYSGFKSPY
Put plainly: YO-PRO assay (YO-PRO-1 uptake) in HEK cells stably expressing P2X7. The experiment is classed as cell-based. The settings on record: HEK-293 cells expressing human recombinant P2X7 receptor; ATP 250 μM, 90 minutes; YO-PRO-1 fluorescence (FLIPR tetra); read-out: IC50 (antagonistic activity with respect to the P2X7 receptor). In short, it runs like this:
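Antagonist serially diluted (duplicates) on P2X7-expressing HEK cells in buffer with 0.5 μM YO-PRO-1; dye uptake followed on FLIPR Tetra over four time points. IC50 from maximum fluorescence intensity versus compound concentration.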
Regarding `COc1nccc(S(=O)(=O)c2ccc(Cl)c(C(=O)NCC3(O)CCCCC3)c2)n1` [Example 141, 2-Chloro-N-(1-hydroxy-cyclohexylmethyl)-5-(2-methoxy-pyrimidine-4-sulfonyl)-benzamide], the IC50 was determined as 3890 nM.
Consider `O=C(NCC1(O)CCCCC1)c1cc(Cn2ccccc2=O)ccc1Cl` [Example 142, 2-Chloro-N-(1-hydroxy-cyclohexylmethyl)-5-(2-oxo-2H-pyridin-1-ylmethyl)-benzamide], for which the IC50 came out at 80 nM.
`O=C(NCC1(O)CCCCC1)c1cc(Cn2cccnc2=O)ccc1Cl` [Example 143, 2-Chloro-N-(1-hydroxy-cyclohexylmethyl)-5-(2-oxo-2H-pyrimidin-1-ylmethyl)-benzamide]: the IC50 was determined as 377 nM.
As for `O=C(NCC1(O)CCCCC1)c1cc(Cn2ccc(=O)[nH]c2=O)ccc1Cl` [Example 144, 2-Chloro-5-(2,4-dioxo-3,4-dihydro-2H-pyrimidin-1-ylmethyl)-N-(1-hydroxy-cyclohexylmethyl)-benzamide], the IC50 amounted to 1390 nM.
For the molecule `O=C(NCC1(O)CCCCC1)c1cc(Cc2ccccn2)ccc1Cl` [Example 145, 2-Chloro-N-(1-hydroxy-cyclohexylmethyl)-5-pyridin-2-ylmethyl-benzamide], the IC50 turned out to be 21 nM.
As for `CSc1nccc(Cc2ccc(Cl)c(C(=O)NCC3(O)CCCCC3)c2)n1` [Example 146, 2-Chloro-N-(1-hydroxy-cyclohexylmethyl)-5-(2-methylsulfanyl-pyrimidin-4-ylmethyl)-benzamide], the IC50 turned out to be 400 nM.
Turning to `O=C(NCC1(O)CCCCC1)c1cc(Cc2cc[nH]c(=O)n2)ccc1Cl` [Example 147, 2-Chloro-N-(1-hydroxy-cyclohexylmethyl)-5-(2-oxo-1,2-dihydro-pyrimidin-4-ylmethyl)-benzamide], the IC50 turned out to be 123 nM.
In the case of `COc1nccc(Cc2ccc(Cl)c(C(=O)NCC3(O)CCCCC3)c2)n1` [Example 148, 2-Chloro-N-(1-hydroxy-cyclohexylmethyl)-5-(2-methoxy-pyrimidin-4-ylmethyl)-benzamide], the IC50 came out at 343 nM.
On to `O=C(NCC1(O)CCC(F)(F)CC1)c1cc(Cc2cc[nH]c(=O)n2)ccc1Cl` [Example 149, 2-Chloro-N-(4,4-difluoro-1-hydroxy-cyclohexylmethyl)-5-(2-oxo-1,2-dihydro-pyrimidin-4-ylmethyl)-benzamide], for which the 50% inhibitory concentration (IC50) worked out at 33 nM.
Take `O=C(c1ccc(Cl)c(C(=O)NCC2(O)CCCCC2)c1)c1cc[nH]c(=O)n1` [Example 150, 2-Chloro-N-(1-hydroxy-cyclohexylmethyl)-5-(2-oxo-1,2-dihydro-pyrimidine-4-carbonyl)-benzamide]: the IC50 was determined as 77 nM.
With `O=C(NCC1(O)CCCCC1)c1cc(C(F)(F)c2cc[nH]c(=O)n2)ccc1Cl` [Example 151, 2-Chloro-5-[difluoro-(2-oxo-1,2-dihydro-pyrimidin-4-yl)-methyl]-N-(1-hydroxy-cyclohexylmethyl)-benzamide], the IC50 worked out at 31 nM.
As to `Cc1ccc(N(C)c2ccnc(Cl)n2)cc1C(=O)NCC1(O)CCCCC1` [Example 153, 5-[(2-Chloro-pyrimidin-4-yl)-methyl-amino]-N-(1-hydroxy-cyclohexylmethyl)-2-methyl-benzamide], the IC50 stood at 702 nM.
In the case of `COc1nccc(N(C)c2ccc(C)c(C(=O)NCC3(O)CCCCC3)c2)n1` [Example 154, N-(1-Hydroxy-cyclohexylmethyl)-5-[(2-methoxy-pyrimidin-4-yl)-methyl-amino]-2-methyl-benzamide], the IC50 came out at 629 nM.
On to `Cc1ccc(N(C)c2cc[nH]c(=O)n2)cc1C(=O)NCC1(O)CCCCC1` [Example 155, N-(1-Hydroxy-cyclohexylmethyl)-2-methyl-5-[methyl-(2-oxo-1,2-dihydro-pyrimidin-4-yl)-amino]-benzamide], for which the IC50 came out at 199 nM.

The term IC50 denotes the concentration that gives 50% inhibition.
